# Legend:
# wild type flies = test: competition for food assay (total number of social events) in wild type (control) flies; format: in vivo, Drosophila
# Experimental: (§1) Experiments were performed with socially experienced, 3-7 days-old male flies. Groups of eight males from the same genotype were anesthetized 24 h prior to the assay and placed in vials with food. On the day of the assay, the males were transferred without anesthesia to an empty vial and were deprived of food for 90 minutes, after which they were exposed to a food droplet and given 2 minutes to acclimate to this disturbance. The flies were then observed simultaneously for an additional 2 minutes, and the total number of social events was scored. Monitored social events were i.e. approaches, lunges, tussles, wing threat and the initiation of courtship. Of note, one interaction involving two or more flies was counted as one social event in total (Zwarts (2011), PNAS 108, 17070-17075. The behavioral assays were conducted in a behavioral chamber (25° C., 60-70% humidity) between 8 a.m. and 11 a.m. Statistics were calculated using a one-way fixed effect ANOVA model, and Kruskal Wallis test in combination with Dunn's multiple comparison test.
# (§2) Example 8. GABA augmentation fully normalizes the behavioral abnormalities of Cyfip^85.1/+ flies. GABA levels were augmented in Cyfip^85.1/+ flies in three distinct ways: flies were fed either GABA, DL-2,4-diaminobutyric acid (DABA) which is a GABA-transaminase inhibitor and/or a GABA reuptake inhibitor or the anticonvulsant valproic acid (VPA) which induces GABA release (Chateauvieux (2010), Journal of biomedicine & biotechnology 2010; Coghlan (2012), Neurosci Biobehav Rev 36, 2044-2055; Reynolds (2007), Current medicinal chemistry 14, 2799-2812). All compounds were purchased from Sigma-Aldrich and were used as described before (Kanellopoulos (2012), J Neurosci. 32(38):13111-24; Zwarts (2011), PNAS 108, 17070-17075). In brief, the drugs were dissolved as per the manufacturer's instructions and used at the following concentrations: GABA at 50 μM, DABA 100 μM, Valproic acid (VPA) at 1 mM and Diazepam at 50 μM. Compounds in solution were mixed with Formula 4-24® Instant Drosophila Medium (blue food) in water. Approximately 50-60 adult flies were placed in plastic vials containing 500 μl of each solution on top of an agar matrix and allowed to feed ad libitum before behaviour analysis. Vehicle treatment consisted of solvent added to blue food alone.
# Cyfip^85.1/+ flies [1] = test: competition for food assay (total number of social events) in Cyfip haploinsufficient flies; format: in vivo, Drosophila; settings: for number of social events: 1 mM in the food, 1 or 2 days; for social behavior deficit (social events): Cyfip^85.1/+ flies fed 5 days, GABA 50 μM, DABA 100 μM, VPA 1 mM
# Experimental: as §1, §2
# Example 16. Drug screening to identify compounds that ameliorate social behavior deficits in flies with Cyfip haploinsufficiency. Control (w1118) or CYFIP (Cyfip^85.1/+) flies were treated, i.e. fed, with various compounds from the Prestwick Chemical Library® as described in Examples 8 and 15. All compounds were used at a concentration of 50 μM. The total number of social interactions was analyzed in a competition for food assay at various time-points (1, 2 or 5 days) of treatment with the compound or vehicle controls as described in Example 2.
# [2] = tested on: flies with GABAergic-specific or pan-neuronal Cyfip abrogation; test: competition for food assay (social interactions) in flies with Cyfip abrogation (UAS-Cyfip-IR); format: in vivo, Drosophila; settings: for social interactions: flies with GABAergic-specific Cyfip abrogation, GABA, DABA or VPA in food
# Source text: To control Cyfip expression, the tissue specific GAL4/UAS system was employed (Brand and Perrimon, 1993). […] Specifically, the UAS-Cyfip-RNAi transgene (UAS-Cyfip-IR) was used to abrogate Cyfip expression as described in Galy et al., 2011. To generate GAL4/UAS-Cyfip-IR flies, GAL4/GAL4 females were crossed en masse to UAS-Cyfip-IR/UAS-Cyfip-IR males. The GAL4 drivers are described in Kanellopoulos (2012), J Neurosci. 32(38):13111-24. GAL4 and UAS lines have been isogenized for 6 generations with the w1118 background before crossing. GAL4/GAL4 and UAS-Cyfip-IR/UAS-Cyfip-IR females were also crossed with w^1118 males to generate GAL4/+ and UAS-Cyfip-IR/+ progeny respectively that served as controls which should not produce the RNAi construct.
# Tissue-specific GAL4 expression was achieved using the tissue-specific GAL4 promoters as follows: pan-neuronal (Elav), in cholinergic (Cha-Gla4), and GABAergic (Gad-Gal4). To avoid neurodevelopmental problems and possible lethality, the ElavGal4, was combined with the temporal TubGal80^ts system (McGuire et al., 2003; McGuire et al., 2004). At 18° C., TubGal80^ts is expressed and binds GAL4, prohibiting its binding to the UAS (i.e., no transcription of UAS-Cyfip-IR). In contrast, at 29-30° C. TubGal80^ts is degraded and will release GAL4 which in turn will bind the UAS thus activating transcription of UAS-Cyfip-IR. […] All flies/progeny for promoter-Gal4;TubGal80^ts and their controls were cultured at 18° C. and 2-days after eclosion were placed at 29-30° C. allowing UAS-Cyfip-IR transcription.
# as §1
# Example 8. GABA augmentation fully normalizes the behavioral abnormalities of Cyfip^85.1/+ flies. […]
# [3] = tested on: mitochondrial membrane potential; settings: literature statement; cited from earlier work
# GABA release = settings: literature statement (Amoroso 1990); cited from earlier work
# GABA = GABA levels by ELISA after fractionation of fly brains; format: in vivo, Drosophila; settings: wild type flies; oligomycin 500 μM in the food
# Experimental: Finally, GABA levels were measured by ELISA (GABA ELISA Enzyme immunoassay (IBL, ID59301) following a fractionation to enrich for mitochondria or synaptic vesicles (Depner (2014), Nat Protoc 9, 2796-2808). In brief, total brain lysates, isolated mitochondria and vesicles were used for GABA derivatization. The samples were incubated with a polyclonal antibody against GABA-derivative, together with assay reagent containing the GABA-derivative (tracer). The concentration of antibody-bound tracer is inverse proportional to the GABA concentration in the sample. Peroxidase conjugate was added detect the tracer and tetramethylbenzidine (TMB) served as a peroxidase substrate. The absorbance was measured in a microplate photometer at 450 nm.
# (§3) Since Aralar needs a proton for import of its substrate (i.e. GABA) into mitochondria, the equilibrium distribution of the transport substrates is set by the pH gradient across the mitochondrial membrane, which in turn is a function of fuel availability, oxidative phosphorylation and activity of the TCA cycle.
# [4] = tested on: mitochondrial membrane potential; test: mitochondrial membrane potential by TMRE staining of fly brains; format: in vivo, Drosophila; settings: wild type flies; oligomycin 500 μM in the food
# Experimental: Briefly, for the TMRE (Enzo) and Rhodamine 123 (Sigma-Aldrich) stainings, brains were dissected in HL3 solution (mM): 110 NaCl, 5 KCl, 10 NaHCO3, 5 Hepes, 30 sucrose, 5 trehalose, and 10 MgCl2, pH 7.2. Dissected brains were stained with 10 nM TMRE or Rhodamine123 dye for 5 minutes at room temperature. Brains were quickly washed with HL3 solution, mounted on glass slides and imaged immediately with confocal microscope Leica SP8 using the same settings for all the samples.
# as §3
# Cyfip^85.1/+ flies [5] = test: Drosophila locomotor activity (DAM system); format: in vivo; settings: 10 μM rotenone for 4 days
# Experimental: The Drosophila Activity Monitoring (DAM) system from Trikinetics Inc. (Walthman, MA) was used to record the locomotor activity of flies. Male flies (1-week old), anesthetised on ice, were individually loaded into the locomotor activity-monitoring tubes, thin 5 mm diameter polycarbonate tubes containing 5% sucrose and 2% agar food and incubated for at least 4 days under 12:12 LD (light-dark) conditions at 25° C. and 50-60% humidity. Light was turned on at 7:30 am and turned off at 7:30 pm. The DAM system software counts the number of times the single fly walks through an infrared beam aimed at the middle of the tube. Data were recorded as the number of crossings (transitions) per bin of 5-30 minutes. To allow the flies to recover from anaesthesia and to get acclimatized to the new environment data from the first day was excluded from the analysis. Two independent experiments were performed and at least 40 flies for each genotype were analysed. Statistical analysis was conducted using GraphPad Prism 6.0 software. Data were evaluated by one-way analysis of variance (ANOVA) with Sidak's post hoc test and by non-parametric Kruskal-Wallis's test with Dunn's correction.
compound,measurement,setting,value
4-formyl-5-hydroxy-6-methylpyridin-3 yl) methyl dihydrogen phosphate [pyridoxal 5′-phosphate hydrate],number of social events,"wild type flies; wild type flies, 1 mM in the food, 2 days",reduced the number of social events
same,number of social events,Cyfip^85.1/+ flies [1]; Cyfip^85.1/+ flies,rescues the deficits in social behavior
same,number of social events,"Cyfip^85.1/+ flies [1]; Cyfip^85.1/+ flies, listed as PLP",increased the number of social events to the level observed for normal wild type flies
"NCCC(N)C(=O)O (racemic) [DABA, DL-2,4-diaminobutyric acid]",social interactions,[2],restored the social interactions
same,social behavior deficit (social events),Cyfip^85.1/+ flies [1],ameliorated the social behavior deficit
"CC(=O)c1ccc(S(=O)(=O)NC(=O)NC2CCCCC2)cc1 [Acetohexamide, 4-Acetyl-N-[(cyclohexylamino)carbonyl]benzenesulfonamide]",mitochondrial membrane potential,[3],decrease the mitochondrial membrane potential
same,GABA release,GABA release,indirectly increase GABA release
"O=C1CCc2ccc(OCCCCN3CCN(c4cccc(Cl)c4Cl)CC3)cc2N1 [Aripiprazole, 7-[4-[4-(2,3-dichlorophenyl)piperazin-1-yl]butoxy]-3,4-dihydro-1H-quinolin-2-one]",mitochondrial membrane potential,[3],decreases the mitochondrial membrane potential
"CCCNC(=O)NS(=O)(=O)c1ccc(Cl)cc1 [Chlorpropamide, (1-[p-Chlorobenzenesulfony1]-3-propylurea)]",mitochondrial membrane potential,[3],decrease the mitochondrial membrane potential
same,GABA release,GABA release,indirectly increase GABA release
"NCCCC(=O)O [GABA, gamma-Aminobutyric acid]",behavioral deficits (social interactions),"[2]; adult pan-neuronal Cyfip abrogation, GABA feeding 5 days",rescued behavioral deficits
same,social interactions,[2],restored the social interactions
same,social interaction,"wild type flies; adult wild-type flies, high GABA diet, 5 days",decreased social interaction
same,social behavior deficit (social events),Cyfip^85.1/+ flies [1],ameliorated the social behavior deficit
same,duration of the effect post treatment (competition for food),"Cyfip^85.1/+ flies [1]; Cyfip^85.1/+ flies treated 5 days with GABA, tested post treatment",2 days
"Cc1ccccc1C(C(=O)NC1CCCC1)N(C(=O)Cn1cnc2ccccc21)c1cccc(F)c1 (stereo not drawn) [ML309, 2-(N-[2-(benzimidazol-1-yl)acetyl]-3-fluoroanilino)-N-cyclopentyl-2-(2-methylphenyl)acetamide]","abnormal social feeding behavior (social events, competition for food)","Cyfip^85.1/+ flies [1]; Cyfip^85.1/+ flies, ML309 with the food at 50 µM, 1 or 3 days",ameliorated the abnormal social feeding behavior
"COc1ccc(CN2CCNCC2)c(OC)c1OC.Cl.Cl [Trimetazidine dihydrochloride, 1-[(2,3,4-trimethoxyphenyl)methyl]piperazine dihydrochloride]",mitochondrial membrane potential,[3],balances the mitochondrial membrane potential
"CCCC(CCC)C(=O)O [VPA, valproic acid]",social interactions,[2],restored the social interactions
same,social behavior deficit (social events),Cyfip^85.1/+ flies [1],ameliorated the social behavior deficit
CC[C@H]1/C=C/C=C/C[C@@H](C)[C@H](O)[C@@](C)(O)C(=O)[C@@H](C)[C@H](O)[C@@H](C)C(=O)[C@@H](C)[C@H](O)[C@@H](C)/C=C/C(=O)O[C@@H]2[C@H](C)[C@H](CC1)O[C@]1(CC[C@H](C)[C@H](C[C@@H](C)O)O1)[C@H]2C [oligomycin],level of available GABA in the cytosol (ELISA),GABA,decreased
same,mitochondrial membrane potential (TMRE staining),[4],increasing mitochondrial membrane potential
same,competition for food,"wild type flies; wild type flies, oligomycin 500 μM in the food, 1 day",decreased
C=C(C)[C@H]1Cc2c(ccc3c2O[C@@H]2COc4cc(OC)c(OC)cc4[C@@H]2C3=O)O1 [rotenone],hyperactivity (locomotion over 24 hours),Cyfip^85.1/+ flies [5],did not restore the hyperactivity
same,hyperactivity (locomotion over 24 hours),Cyfip^85.1/+ flies [5]; listed as Rotenone,does not rescue hyperactivity
same,behavior of wild type flies (competition for food),"wild type flies; wild type flies, rotenone 1-10 μM in the food, 4 days",no effect
same,reversibility of the effect of treatment on social behavior,"Cyfip^85.1/+ flies [1]; Cyfip^85.1/+ flies treated 4 days with rotenone, tested for 5 days post-treatment",reversible
same,social deficits (competition for food),"Cyfip^85.1/+ flies [1]; Cyfip^85.1/+ flies, rotenone 1-10 μM in the food, 4 days",ameliorate social deficits

# Reference: US20240139205A1, “MODULATORS OF ARALAR FOR TREATING NEUROLOGICAL DISORDERS” (Universite de Lausanne, priority 2020, published 2024)
